# According to US11000033B2, “Ketone or oxime compound, and herbicide” (NISSAN CHEMICAL CORPORATION, priority 2014, dated 2021):
# How the values were obtained:
# Assay type in all cases: in vivo
# [1] = system: beet; test: Test Example 4: effect on crop by soil treatment (symbol f); conditions: application herbicide amount 320 g/ha
# Procedure, shortened: (§1)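 Sterilized diluvial soil, spot sowing, ~1.5 cm soil cover; greenhouse 25–30° C.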
# [2] = system: Lolium multiflorum Lam.; test: Test Example 4: herbicidal effect by soil treatment (symbol K); conditions: application herbicide amount 320 g/ha
# Procedure, shortened: (§2)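 Seeds were sown in sterilized diluvial soil, covered with about 1.5 cm of soil, and the soil surface was sprayed with a water-diluted emulsion of the compound at a predetermined rate. Plants grew in a greenhouse at 25° C. to 30° C.; effects were scored visually 3 weeks after application.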
# [3] = system: Digitaria ciliaris; test: Test Example 4: herbicidal effect by soil treatment (symbol F); conditions: application herbicide amount 320 g/ha
# Procedure, shortened: as §2
# [4] = system: wheat; test: Test Example 5: effect on crop by foliage application, plastic box (symbol e); conditions: 320 g/ha, 3 weeks after application
# Procedure, shortened: (§3)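 Greenhouse test at 25° C. to 30° C. Seeds of crops and weeds were spot-sown in boxes of sterilized diluvial soil under roughly 1.5 cm soil cover, then grown for foliage treatment.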
# [5] = system: directly sowed rice plant; test: Test Example 3: effect on crop by foliage application, Wagner pot (symbol b); conditions: application herbicide amount 320 g/ha
# Procedure, shortened: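 Greenhouse culture at 25–30 °C of seeded rice, Cyperus difformis, Leptochloa chinensis and Echinochloa crus-galli var. crus-galli, in alluvial soil held under 0.1–0.5 cm of water in a Wagner pot.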
# [6] = system: rapeseed; test: Test Example 4: effect on crop by soil treatment (symbol g); conditions: application herbicide amount 320 g/ha
# Procedure, shortened: as §1
# [7] = system: Echinochloa oryzacola Vasing.; test: Test Example 2: herbicidal activity, application during weed generation in submerged conditions (symbol A); conditions: Table 23; application herbicide amount 320 g/ha; grade 0-5 by criteria of Test Example 1
# Procedure, shortened: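 Scoring of herbicidal effect took place 3 weeks after treatment, using the criteria of the earlier test. Treatment was water-surface application of diluted emulsifiable compound at a set dose. Plants were at one- to two-leaf stage in submerged alluvial soil (4 cm depth), greenhouse 25-30° C.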
# [8] = system: rice; test: Test Example 4: effect on crop by soil treatment (symbol b); conditions: application herbicide amount 320 g/ha
# Procedure, shortened: as §1
# [9] = system: wheat; test: Test Example 4: effect on crop by soil treatment (symbol e); conditions: application herbicide amount 320 g/ha
# Procedure, shortened: as §1
# [10] = system: Lolium multiflorum Lam.; test: Test Example 5: herbicidal effect by foliage application, plastic box (symbol K); conditions: 320 g/ha, 3 weeks after application
# Procedure, shortened: (§4)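 Herbicide, formulated as an emulsion and diluted in water, is sprayed onto the aerial parts of 14-day seedlings. These were grown at 25° C. to 30° C. in sterilized diluvial soil; effects are graded after 3 weeks.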
# [11] = system: Alopecurus myosuroides; test: Test Example 4: herbicidal effect by soil treatment (symbol J); conditions: application herbicide amount 320 g/ha
# Procedure, shortened: as §2
# [12] = system: corn; test: Test Example 4: effect on crop by soil treatment (symbol c); conditions: application herbicide amount 320 g/ha
# Procedure, shortened: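 Plants are raised in a greenhouse (25° C. to 30° C.) from spot-sown seed, which sits under about 1.5 cm of sterilized diluvial soil in a box shared with weed species.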
# [13] = system: Stellaria media; test: Test Example 4: herbicidal effect by soil treatment (symbol P); conditions: application herbicide amount 320 g/ha
# Procedure, shortened: as §2
# [14] = system: rice plant; test: Test Example 5: effect on crop by foliage application, plastic box (symbol b); conditions: 320 g/ha, 3 weeks after application
# Procedure, shortened: as §3
# [15] = system: Alopecurus myosuroides; test: Test Example 5: herbicidal effect by foliage application, plastic box (symbol J); conditions: 320 g/ha, 3 weeks after application
# Procedure, shortened: as §4
compound,measurement,setting,value
CON=C(C)CC1CC(OC(=O)N2CCOCC2)=C(c2c(C)cc(C)cc2OC)C1=O (stereo not drawn) [6-094],"Effect on crop grade, f: beet",[1],0 (Herbicidal ratio of 5% or lower (almost no effect))
same,"Herbicidal effect grade, K: Lolium multiflorum Lam.",[2],5 (Herbicidal ratio of 90% or more (almost completely withered))
same,"Herbicidal effect grade, F: Digitaria ciliaris",[3],5 (Herbicidal ratio of 90% or more (almost completely withered))
same,"e: wheat, effect on crop (criteria of Test Example 1)",[4],4 (Herbicidal ratio of 70% or higher and lower than 90%)
same,"effect on crop b (directly sowed rice plant), grade 0-5",[5],5 (Herbicidal ratio of 90% or more (almost completely withered))
same,"Effect on crop grade, g: rapeseed",[6],4 (Herbicidal ratio of 70% or higher and lower than 90%)
same,"Herbicidal effect grade, A: Echinochloa oryzacola Vasing.",[7],5 (Herbicidal ratio of 90% or more (almost completely withered))
same,"Effect on crop grade, b: directly sowed rice plant",[8],5 (Herbicidal ratio of 90% or more (almost completely withered))
same,"Effect on crop grade, e: wheat",[9],0 (Herbicidal ratio of 5% or lower (almost no effect))
same,"K: Lolium multiflorum Lam., herbicidal effect (criteria of Test Example 1)",[10],5 (Herbicidal ratio of 90% or more (almost completely withered))
same,"Herbicidal effect grade, J: Alopecurus myosuroides",[11],5 (Herbicidal ratio of 90% or more (almost completely withered))
same,"Effect on crop grade, c: corn",[12],1 (Herbicidal ratio of 5% or higher and lower than 20%)
same,"Herbicidal effect grade, P: Stellaria media",[13],0 (Herbicidal ratio of 5% or lower (almost no effect))
same,"b: directly sowed rice plant, effect on crop (criteria of Test Example 1)",[14],5 (Herbicidal ratio of 90% or more (almost completely withered))
same,"J: Alopecurus myosuroides, herbicidal effect (criteria of Test Example 1)",[15],5 (Herbicidal ratio of 90% or more (almost completely withered))
CC(=O)CC1CC(O)=C(c2c(C)cc(-c3ccc(C(F)(F)F)cc3)cc2C)C1=O (stereo not drawn) [7-005],"Effect on crop grade, f: beet",[1],0 (Herbicidal ratio of 5% or lower (almost no effect))
same,"Herbicidal effect grade, K: Lolium multiflorum Lam.",[2],2 (Herbicidal ratio of 20% or higher and lower than 40%)
same,"Herbicidal effect grade, F: Digitaria ciliaris",[3],5 (Herbicidal ratio of 90% or more (almost completely withered))
same,"e: wheat, effect on crop (criteria of Test Example 1)",[4],0 (Herbicidal ratio of 5% or lower (almost no effect))
same,"effect on crop b (directly sowed rice plant), grade 0-5",[5],5 (Herbicidal ratio of 90% or more (almost completely withered))
same,"Effect on crop grade, g: rapeseed",[6],0 (Herbicidal ratio of 5% or lower (almost no effect))
same,"Herbicidal effect grade, A: Echinochloa oryzacola Vasing.",[7],1 (Herbicidal ratio of 5% or higher and lower than 20%)
same,"Effect on crop grade, b: directly sowed rice plant",[8],1 (Herbicidal ratio of 5% or higher and lower than 20%)
same,"Effect on crop grade, e: wheat",[9],0 (Herbicidal ratio of 5% or lower (almost no effect))
same,"K: Lolium multiflorum Lam., herbicidal effect (criteria of Test Example 1)",[10],5 (Herbicidal ratio of 90% or more (almost completely withered))
same,"Herbicidal effect grade, J: Alopecurus myosuroides",[11],0 (Herbicidal ratio of 5% or lower (almost no effect))
same,"Effect on crop grade, c: corn",[12],0 (Herbicidal ratio of 5% or lower (almost no effect))
same,"Herbicidal effect grade, P: Stellaria media",[13],0 (Herbicidal ratio of 5% or lower (almost no effect))
same,"b: directly sowed rice plant, effect on crop (criteria of Test Example 1)",[14],4 (Herbicidal ratio of 70% or higher and lower than 90%)
same,"J: Alopecurus myosuroides, herbicidal effect (criteria of Test Example 1)",[15],2 (Herbicidal ratio of 20% or higher and lower than 40%)
CC(=O)CC1CC(O)=C(c2c(C)cc(C)cc2Br)C1=O (stereo not drawn) [7-011],"Effect on crop grade, f: beet",[1],0 (Herbicidal ratio of 5% or lower (almost no effect))
same,"Herbicidal effect grade, K: Lolium multiflorum Lam.",[2],4 (Herbicidal ratio of 70% or higher and lower than 90%)
same,"Herbicidal effect grade, F: Digitaria ciliaris",[3],5 (Herbicidal ratio of 90% or more (almost completely withered))
same,"e: wheat, effect on crop (criteria of Test Example 1)",[4],0 (Herbicidal ratio of 5% or lower (almost no effect))
same,"effect on crop b (directly sowed rice plant), grade 0-5",[5],5 (Herbicidal ratio of 90% or more (almost completely withered))
same,"Effect on crop grade, g: rapeseed",[6],4 (Herbicidal ratio of 70% or higher and lower than 90%)
same,"Herbicidal effect grade, A: Echinochloa oryzacola Vasing.",[7],3 (Herbicidal ratio of 40% or higher and lower than 70%)
same,"Effect on crop grade, b: directly sowed rice plant",[8],5 (Herbicidal ratio of 90% or more (almost completely withered))
same,"Effect on crop grade, e: wheat",[9],0 (Herbicidal ratio of 5% or lower (almost no effect))
same,"K: Lolium multiflorum Lam., herbicidal effect (criteria of Test Example 1)",[10],5 (Herbicidal ratio of 90% or more (almost completely withered))
same,"Herbicidal effect grade, J: Alopecurus myosuroides",[11],3 (Herbicidal ratio of 40% or higher and lower than 70%)
same,"Effect on crop grade, c: corn",[12],3 (Herbicidal ratio of 40% or higher and lower than 70%)
same,"Herbicidal effect grade, P: Stellaria media",[13],0 (Herbicidal ratio of 5% or lower (almost no effect))
same,"b: directly sowed rice plant, effect on crop (criteria of Test Example 1)",[14],5 (Herbicidal ratio of 90% or more (almost completely withered))
same,"J: Alopecurus myosuroides, herbicidal effect (criteria of Test Example 1)",[15],4 (Herbicidal ratio of 70% or higher and lower than 90%)
CC(=O)CC1CC(O)=C(c2c(C)cc(-c3ccc(C)cc3)cc2C)C1=O (stereo not drawn) [7-007],"Effect on crop grade, f: beet",[1],0 (Herbicidal ratio of 5% or lower (almost no effect))
same,"Herbicidal effect grade, K: Lolium multiflorum Lam.",[2],5 (Herbicidal ratio of 90% or more (almost completely withered))
same,"Herbicidal effect grade, F: Digitaria ciliaris",[3],4 (Herbicidal ratio of 70% or higher and lower than 90%)
same,"e: wheat, effect on crop (criteria of Test Example 1)",[4],2 (Herbicidal ratio of 20% or higher and lower than 40%)
same,"effect on crop b (directly sowed rice plant), grade 0-5",[5],5 (Herbicidal ratio of 90% or more (almost completely withered))
same,"Effect on crop grade, g: rapeseed",[6],0 (Herbicidal ratio of 5% or lower (almost no effect))
same,"Herbicidal effect grade, A: Echinochloa oryzacola Vasing.",[7],5 (Herbicidal ratio of 90% or more (almost completely withered))
same,"Effect on crop grade, b: directly sowed rice plant",[8],4 (Herbicidal ratio of 70% or higher and lower than 90%)
same,"Effect on crop grade, e: wheat",[9],0 (Herbicidal ratio of 5% or lower (almost no effect))
same,"K: Lolium multiflorum Lam., herbicidal effect (criteria of Test Example 1)",[10],5 (Herbicidal ratio of 90% or more (almost completely withered))
same,"Herbicidal effect grade, J: Alopecurus myosuroides",[11],5 (Herbicidal ratio of 90% or more (almost completely withered))
same,"Effect on crop grade, c: corn",[12],3 (Herbicidal ratio of 40% or higher and lower than 70%)
same,"Herbicidal effect grade, P: Stellaria media",[13],0 (Herbicidal ratio of 5% or lower (almost no effect))
same,"b: directly sowed rice plant, effect on crop (criteria of Test Example 1)",[14],5 (Herbicidal ratio of 90% or more (almost completely withered))
same,"J: Alopecurus myosuroides, herbicidal effect (criteria of Test Example 1)",[15],5 (Herbicidal ratio of 90% or more (almost completely withered))
CON=C(C)CC1CC(OS(=O)(=O)N(C)C)=C(c2c(C)cc(-c3ccc(F)cc3)cc2C)C1=O (mixture of isomers) [6-060],"f: beet, effect on crop grade",[1],0 (Herbicidal ratio of 5% or lower (almost no effect))
same,"K: Lolium multiflorum Lam., herbicidal effect grade",[2],3 (Herbicidal ratio of 40% or higher and lower than 70%)
same,"F: Digitaria ciliaris, herbicidal effect grade",[3],5 (Herbicidal ratio of 90% or more (almost completely withered))
same,"e: wheat, effect on crop (criteria of Test Example 1)",[4],4 (Herbicidal ratio of 70% or higher and lower than 90%)
same,"effect on crop b (directly sowed rice plant), grade 0-5",[5],5 (Herbicidal ratio of 90% or more (almost completely withered))
same,"g: rapeseed, effect on crop grade",[6],0 (Herbicidal ratio of 5% or lower (almost no effect))
same,"Herbicidal effect grade, A: Echinochloa oryzacola Vasing.",[7],5 (Herbicidal ratio of 90% or more (almost completely withered))
same,"b: directly sowed rice plant, effect on crop grade",[8],3 (Herbicidal ratio of 40% or higher and lower than 70%)
same,"e: wheat, effect on crop grade",[9],0 (Herbicidal ratio of 5% or lower (almost no effect))
same,"K: Lolium multiflorum Lam., herbicidal effect (criteria of Test Example 1)",[10],5 (Herbicidal ratio of 90% or more (almost completely withered))
same,"J: Alopecurus myosuroides, herbicidal effect grade",[11],3 (Herbicidal ratio of 40% or higher and lower than 70%)
same,"c: corn, effect on crop grade",[12],0 (Herbicidal ratio of 5% or lower (almost no effect))
same,"P: Stellaria media, herbicidal effect grade",[13],0 (Herbicidal ratio of 5% or lower (almost no effect))
same,"b: directly sowed rice plant, effect on crop (criteria of Test Example 1)",[14],5 (Herbicidal ratio of 90% or more (almost completely withered))
same,"J: Alopecurus myosuroides, herbicidal effect (criteria of Test Example 1)",[15],5 (Herbicidal ratio of 90% or more (almost completely withered))
